# Experimental data taken from patent US9567302B2, “Carbamate compounds and of making and using same” (Abide Therapeutics, Inc., priority 2012, dated 2017).
# Columns and labels:
# Assay type in all cases: biochemical
# Set-up in all cases: from tissue
# MAGL = target: T1, MAGL (Mus musculus, UniProt O35678); assay: In vitro competitive ABPP, % inhibition at fixed concentration, MAGL
# T1 sequence (O35678 1-303): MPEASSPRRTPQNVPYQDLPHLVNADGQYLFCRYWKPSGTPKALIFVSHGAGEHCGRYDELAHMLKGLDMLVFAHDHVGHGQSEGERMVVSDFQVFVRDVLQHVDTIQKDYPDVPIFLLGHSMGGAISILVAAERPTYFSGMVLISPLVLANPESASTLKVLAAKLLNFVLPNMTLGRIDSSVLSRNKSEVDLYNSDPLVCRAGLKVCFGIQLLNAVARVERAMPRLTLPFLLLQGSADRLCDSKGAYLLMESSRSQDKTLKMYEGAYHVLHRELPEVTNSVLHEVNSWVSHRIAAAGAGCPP
# Summary of the method: (§1)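 Mouse brain membrane proteome or cell lysate at 1.0 mg/ml was preincubated with inhibitor for 30 min at 37° C, then labelled with FP-Rh for another 30 min. After SDS-PAGE, activity was quantified from the fluorescent intensity of the MAGL, ABHD6 and FAAH bands.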
# ABHD6 = target: T2, ABHD6 (Mus musculus, UniProt Q8R2Y0); assay: In vitro competitive ABPP, % inhibition at fixed concentration, ABHD6
# T2 sequence (Q8R2Y0 1-336): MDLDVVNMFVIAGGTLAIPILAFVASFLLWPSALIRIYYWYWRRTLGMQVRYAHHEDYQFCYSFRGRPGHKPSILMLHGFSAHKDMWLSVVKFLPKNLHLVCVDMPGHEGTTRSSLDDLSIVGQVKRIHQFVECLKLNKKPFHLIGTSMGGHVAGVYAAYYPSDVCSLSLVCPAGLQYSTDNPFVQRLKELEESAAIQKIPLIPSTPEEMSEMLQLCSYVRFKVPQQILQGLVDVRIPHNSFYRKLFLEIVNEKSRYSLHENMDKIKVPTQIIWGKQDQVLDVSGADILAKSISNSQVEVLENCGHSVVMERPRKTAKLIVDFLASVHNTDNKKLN
# Summary of the method: as §1
# FAAH = target: T3, FAAH (Mus musculus, UniProt O08914); assay: In vitro competitive ABPP, % inhibition at fixed concentration, FAAH
# T3 sequence (O08914 1-579): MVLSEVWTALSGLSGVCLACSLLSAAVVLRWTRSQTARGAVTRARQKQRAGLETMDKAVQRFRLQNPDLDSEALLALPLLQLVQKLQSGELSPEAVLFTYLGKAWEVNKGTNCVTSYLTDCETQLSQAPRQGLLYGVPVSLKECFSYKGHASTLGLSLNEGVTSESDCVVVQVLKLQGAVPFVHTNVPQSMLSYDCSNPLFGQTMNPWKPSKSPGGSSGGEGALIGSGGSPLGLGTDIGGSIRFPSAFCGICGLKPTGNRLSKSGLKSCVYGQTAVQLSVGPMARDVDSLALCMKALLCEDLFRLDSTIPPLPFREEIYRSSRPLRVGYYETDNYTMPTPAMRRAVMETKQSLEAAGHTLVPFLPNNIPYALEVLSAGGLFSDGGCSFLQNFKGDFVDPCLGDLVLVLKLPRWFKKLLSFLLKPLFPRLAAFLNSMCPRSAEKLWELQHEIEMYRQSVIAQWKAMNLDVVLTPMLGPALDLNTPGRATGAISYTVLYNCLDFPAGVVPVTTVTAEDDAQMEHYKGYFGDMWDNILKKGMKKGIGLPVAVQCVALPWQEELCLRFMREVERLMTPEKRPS
# Summary of the method: as §1
Structure (SMILES),inhibition at 1 µM (MAGL),inhibition at 1 µM (ABHD6),inhibition at 1 µM (FAAH)
"Cc1cccc(-c2ccc(CN3CCN(C(=O)ON4C(=O)CCC4=O)CC3)c(C)c2)n1 [Example 173, 2,5-Dioxopyrrolidin-1-yl 4-{[2-methyl-4-(6-methylpyridin-2-yl)phenyl]methyl}piperazine-1-carboxylate]",25 to 75%,25 to 75%,< 25%
"Cc1ncccc1-c1ccc(CN2CCN(C(=O)ON3C(=O)CCC3=O)CC2)c(F)c1 [Example 174, 2,5-Dioxopyrrolidin-1-yl 4-{[2-fluoro-4-(2-methylpyridin-3-yl)phenyl]methyl}piperazine-1-carboxylate]",25 to 75%,25 to 75%,< 25%
"Cc1cccc(-c2ccc(CN3CCN(C(=O)ON4C(=O)CCC4=O)CC3)c(F)c2)n1 [Example 175, 2,5-Dioxopyrrolidin-1-yl 4-{[2-fluoro-4-(6-methylpyridin-2-yl)phenyl]methyl}piperazine-1-carboxylate]",25 to 75%,25 to 75%,< 25%
"Cc1cc(-c2ccc(CN3CCN(C(=O)ON4C(=O)CCC4=O)CC3)c(F)c2)cc(C)n1 [Example 176, 2,5-Dioxopyrrolidin-1-yl 4-{[4-(2,6-dimethylpyridin-4-yl)-2-fluorophenyl]methyl}piperazine-1-carboxylate]",25 to 75%,25 to 75%,< 25%
"Cc1cnccc1-c1ccc(CN2CCN(C(=O)ON3C(=O)CCC3=O)CC2)c(F)c1 [Example 177, 2,5-Dioxopyrrolidin-1-yl 4-{[2-fluoro-4-(3-methylpyridin-4-yl)phenyl]methyl}piperazine-1-carboxylate]",25 to 75%,> 75%,< 25%
"Cc1nc(CN2CCN(C(=O)ON3C(=O)CCC3=O)CC2)ccc1-c1ccccc1F [Example 178, 2,5-Dioxopyrrolidin-1-yl 4-{[5-(2-fluorophenyl)-6-methylpyridin-2-yl]methyl}piperazine-1-carboxylate]",25 to 75%,25 to 75%,< 25%
"Cc1ccccc1-c1ccc(CN2CCN(C(=O)ON3C(=O)CCC3=O)CC2)nc1C [Example 179, 2,5-Dioxopyrrolidin-1-yl 4-{[6-methyl-5-(2-methylphenyl)pyridin-2-yl]methyl}piperazine-1-carboxylate]",25 to 75%,25 to 75%,< 25%
"Cc1cccc(-c2ccc(CN3CCN(C(=O)ON4C(=O)CCC4=O)CC3)nc2C)c1 [Example 180, 2,5-Dioxopyrrolidin-1-yl 4-{[6-methyl-5-(3-methylphenyl)pyridin-2-yl]methyl}piperazine-1-carboxylate]",> 75%,> 75%,< 25%
"Cc1nc(CN2CCN(C(=O)ON3C(=O)CCC3=O)CC2)ccc1-c1cccc(F)c1 [Example 181, 2,5-Dioxopyrrolidin-1-yl 4-{[5-(3-fluorophenyl)-6-methylpyridin-2-yl]methyl}piperazine-1-carboxylate]",25 to 75%,< 25%,< 25%
"Cc1ccccc1-c1ccc(CN2CCN(C(=O)ON3C(=O)CCC3=O)CC2)c(C)n1 [Example 182, 2,5-Dioxopyrrolidin-1-yl 4-{[2-methyl-6-(2-methylphenyl)pyridin-3-yl]methyl}piperazine-1-carboxylate]",25 to 75%,> 75%,< 25%
"Cc1nc(-c2ccccc2F)ccc1CN1CCN(C(=O)ON2C(=O)CCC2=O)CC1 [Example 183, 2,5-Dioxopyrrolidin-1-yl 4-{[6-(2-fluorophenyl)-2-methylpyridin-3-yl]methyl}piperazine-1-carboxylate]",25 to 75%,> 75%,< 25%
"Cc1cccc(-c2ccc(CN3CCN(C(=O)ON4C(=O)CCC4=O)CC3)c(C)n2)c1 [Example 184, 2,5-Dioxopyrrolidin-1-yl 4-{[2-methyl-6-(3-methylphenyl)pyridin-3-yl]methyl}piperazine-1-carboxylate]",> 75%,25 to 75%,< 25%

# Other lines, results leading:
inhibition at 1 µM (MAGL),inhibition at 1 µM (ABHD6),inhibition at 1 µM (FAAH),Structure (SMILES)
> 75%,> 75%,< 25%,"Cc1nc(-c2cccc(F)c2)ccc1CN1CCN(C(=O)ON2C(=O)CCC2=O)CC1 [Example 185, 2,5-Dioxopyrrolidin-1-yl 4-{[6-(3-fluorophenyl)-2-methylpyridin-3-yl]methyl}piperazine-1-carboxylate]"
25 to 75%,25 to 75%,< 25%,"CC(C)c1cc(N2CCCC2)ccc1CN1CCN(C(=O)ON2C(=O)CCC2=O)CC1 [Example 186, 2,5-Dioxopyrrolidin-1-yl 4-{[2-(propan-2-yl)-4-(pyrrolidin-1-yl)phenyl]methyl}piperazine-1-carboxylate]"
25 to 75%,25 to 75%,< 25%,"CC(C)c1cc(N2CCOCC2)ccc1CN1CCN(C(=O)ON2C(=O)CCC2=O)CC1 [Example 187, 2,5-Dioxopyrrolidin-1-yl 4-{[4-(morpholin-4-yl)-2-(propan-2-yl)phenyl]methyl}piperazine-1-carboxylate]"
25 to 75%,< 25%,< 25%,"O=C(ON1C(=O)CCC1=O)N1CCN(Cc2cccc(Cl)c2C(=O)N2CCCC2)CC1 [Example 190, 2,5-Dioxopyrrolidin-1-yl 4-{[3-chloro-2-(pyrrolidine-1-carbonyl)phenyl]methyl}piperazine-1-carboxylate]"
25 to 75%,25 to 75%,< 25%,"O=C(ON1C(=O)CCC1=O)N1CCN(Cc2ccc(C(=O)N3CCOCC3)cc2Cl)CC1 [Example 192, 2,5-dioxopyrrolidin-1-yl 4-{[2-chloro-4-(morpholine-4-carbonyl)phenyl]methyl}piperazine-1-carboxylate]"
25 to 75%,25 to 75%,< 25%,"O=C(ON1C(=O)CCC1=O)N1CCN(Cc2ccc(C(=O)N3CCCC3)cc2Cl)CC1 [Example 193, 2,5-Dioxopyrrolidin-1-yl 4-{[2-chloro-4-(pyrrolidine-1-carbonyl)phenyl]methyl}piperazine-1-carboxylate]"
25 to 75%,25 to 75%,< 25%,"O=C(ON1C(=O)CCC1=O)N1CCN(Cc2ccc(C(=O)N3CCC3)cc2Cl)CC1 [Example 194, 2,5-Dioxopyrrolidin-1-yl 4-{[4-(azetidine-1-carbonyl)-2-chlorophenyl]methyl}piperazine-1-carboxylate]"
< 25%,< 25%,< 25%,"O=C(ON1C(=O)CCC1=O)N1CCN(Cc2ccc(Cl)cc2C(=O)N2CCOCC2)CC1 [Example 195, 2,5-Dioxopyrrolidin-1-yl 4-{[4-chloro-2-(morpholine-4-carbonyl)phenyl]methyl}piperazine-1-carboxylate]"
25 to 75%,< 25%,< 25%,"O=C(ON1C(=O)CCC1=O)N1CCN(Cc2ccc(Cl)cc2C(=O)N2CCCC2)CC1 [Example 196, 2,5-Dioxopyrrolidin-1-yl 4-{[4-chloro-2-(pyrrolidine-1-carbonyl)phenyl]methyl}piperazine-1-carboxylate]"
